Structures can show the parent of a compound that is named as a salt.
Molecular target: T1, PDE7 (type VII phosphodiesterase) (Homo sapiens, UniProt Q13946)
T1 construct: endogenous in cells; host or cells: MOLT-4 (ATCC CRL-1582), soluble fraction, HiTrapQ anion-exchange fraction
Assay: PDE7 inhibiting activity (3H-cAMP hydrolysis, active fraction from MOLT-4 cells)
Type: biochemical
Conditions: PDE7 fraction from MOLT-4 cells, 0.064 μM cAMP, 10 μM rolipram present, 2 hours at 25° C.; read-out: IC50 values for phosphodiesterase inhibiting activities (PDE7)
Procedure, shortened: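 Read-out: supernatant radioactivity after twice-repeated QAE-Sephadex treatment of a 2 h, 25° C reaction (3H-cAMP at 0.064 μM cAMP, 10 μM rolipram, 5′-nucleotidase, 1 mM MgCl2, pH 7.5). Enzyme is an anion-exchange-purified fraction from MOLT-4 T cells. IC50 taken as half-maximal inhibition.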

T1 sequence (Q13946 whole entry): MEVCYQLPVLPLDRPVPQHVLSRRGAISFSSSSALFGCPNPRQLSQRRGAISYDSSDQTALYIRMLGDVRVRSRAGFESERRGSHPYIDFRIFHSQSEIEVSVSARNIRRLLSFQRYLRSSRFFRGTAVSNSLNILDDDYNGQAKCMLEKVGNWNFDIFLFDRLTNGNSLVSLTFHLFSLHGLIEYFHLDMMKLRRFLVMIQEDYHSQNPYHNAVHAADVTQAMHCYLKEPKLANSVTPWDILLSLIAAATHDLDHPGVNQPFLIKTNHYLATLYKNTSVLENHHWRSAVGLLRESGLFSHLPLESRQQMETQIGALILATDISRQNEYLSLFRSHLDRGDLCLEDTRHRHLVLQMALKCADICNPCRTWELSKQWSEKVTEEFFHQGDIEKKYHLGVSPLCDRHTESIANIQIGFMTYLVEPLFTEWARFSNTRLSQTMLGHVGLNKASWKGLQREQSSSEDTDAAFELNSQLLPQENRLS

Row | IC50 [nM] | SMILES
1 | ≤ 10 | COc1cc(/C=C/C(=O)O)ccc1-c1nc2c(C)nn(C3CCCCC3)c2c(=O)[nH]1 [Example 227, (2E)-3-[4-(1-cyclohexyl-3-methyl-7-oxo-6,7-dihydro-1H-pyrazolo[4,3-d]pyrimidin-5-yl)-3-methoxyphenyl]-2-propenic acid]
2 | ≤ 1000 | COc1cc(S(=O)(=O)N2CCC(O)C2)ccc1-c1nc2c(c(C3CCCCC3)nn2C)c(=O)[nH]1 (stereo not shown) [Example 164, 3-Cyclohexyl-6-{4-[(3-hydroxy-1-pyrrolidinyl)sulfonyl]-2-methoxyphenyl}-1-methyl-1,5-dihydro-4H-pyrazolo[3,4-d]pyrimidin-4-one]
3 | ≤ 1000 | COc1cc(S(=O)(=O)NC2CCNCC2)ccc1-c1nc2c(C)nn(C3CCCCC3)c2c(=O)[nH]1 [Example 220, 4-(1-Cyclohexyl-3-methyl-7-oxo-6,7-dihydro-1H-pyrazolo[4,3-d]pyrimidin-5-yl)-3-methoxy-N-(4-piperidinyl)benzenesulfonamide monohydrochloride]
4 | ≤ 10 | COc1cc(NS(C)(=O)=O)ccc1-c1nc2c(c(C3CCCCC3)nn2C)c(=O)[nH]1 [Example 142, N-[4-(3-cyclohexyl-1-methyl-4-oxo-4,5-dihydro-1H-pyrazolo[3,4-d]pyrimidin-6-yl)-3-methoxyphenyl]methanesulfonamide]
5 | ≤ 1000 | COc1cc(CN2CCN(C)CC2)ccc1-c1nc2c(C)nn(C3CCCCC3)c2c(=O)[nH]1 [Example 234, 1-Cyclohexyl-5-{2-methoxy-4-[(4-methyl-1-piperazinyl)methyl]phenyl}-3-methyl-1,6-dihydro-7H-pyrazolo[4,3-d]pyrimidin-7-one]
6 | ≤ 1000 | CCn1nc(C2CCCCC2)c2c(=O)[nH]c(-c3ccc(S(=O)(=O)N4CCC(O)CC4)cc3OC)nc21 [Example 207, 3-Cyclohexyl-1-ethyl-6-{4-[(4-hydroxy-1-piperidinyl)sulfonyl]-2-methoxyphenyl}-1,5-dihydro-4H-pyrazolo[3,4-d]pyrimidin-4-one]
7 | ≤ 1000 | CCOc1cc(N2CCN(C)CC2)ccc1-c1nc2c(C)nn(C3CCCCC3)c2c(=O)[nH]1 [Example 264, 1-Cyclohexyl-5-[2-ethoxy-4-(4-methyl-1-piperazinyl)phenyl]-3-methyl-1,6-dihydro-7H-pyrazolo[4,3-d]pyrimidin-7-one]
8 | ≤ 1000 | COc1cc(S(=O)(=O)NCCO)ccc1-c1nc2c(C)nn(C3CCCCC3)c2c(=O)[nH]1 [Example 200, 4-(1-Cyclohexyl-3-methyl-7-oxo-6,7-dihydro-1H-pyrazolo[4,3-d]pyrimidin-5-yl)-N-(2-hydroxyethyl)-3-methoxybenzenesulfonamide]
9 | ≤ 1000 | COCCNCc1ccc(-c2nc3c(C)nn(C4CCCCC4)c3c(=O)[nH]2)c(OC)c1 [Example 237, 1-Cyclohexyl-5-(2-methoxy-4-{[(2-methoxyethyl)amino]methyl}phenyl)-3-methyl-1,6-dihydro-7H-pyrazolo[4,3-d]pyrimidin-7-one]
10 | ≤ 1000 | CCOc1cc(N2CCNCC2)ccc1-c1nc2c(C)nn(C3CCCCC3)c2c(=O)[nH]1 [Example 268, 1-Cyclohexyl-5-[2-ethoxy-4-(1-piperazinyl)phenyl]-3-methyl-1,6-dihydro-7H-pyrazolo[4,3-d]pyrimidin-7-one]
11 | ≤ 1000 | CNC1CCN(Cc2ccc(-c3nc4c(C)nn(C5CCCCC5)c4c(=O)[nH]3)c(OC)c2)CC1 [Example 241, 1-Cyclohexyl-5-(2-methoxy-4-{[4-(methylamino)-1-piperidinyl]methyl}phenyl)-3-methyl-1,6-dihydro-7H-pyrazolo[4,3-d]pyrimidin-7-one]
12 | ≤ 1000 | COc1cc(S(=O)(=O)N2CCN(C)CC2)ccc1-c1nc2c(C)nn(C3CCCCC3)c2c(=O)[nH]1 [Example 214, 1-Cyclohexyl-5-{2-methoxy-4-[(4-methyl-1-piperazinyl)sulfonyl]phenyl}-3-methyl-1,6-dihydro-7H-pyrazolo[4,3-d]pyrimidin-7-one]
13 | ≤ 1000 | COc1cc(N(C)S(C)(=O)=O)ccc1-c1nc2c(c(C3CCCCC3)nn2C)c(=O)[nH]1 [Example 147, N-[4-(3-cyclohexyl-1-methyl-4-oxo-4,5-dihydro-1H-pyrazolo[3,4-d]pyrimidin-6-yl)-3-methoxyphenyl]-N-methylmethanesulfonamide]
14 | ≤ 10 | CCOc1cc(N2CCC(O)CC2)ccc1-c1nc2c(C)nn(C3CCCCC3)c2c(=O)[nH]1 [Example 261, 1-Cyclohexyl-5-[2-ethoxy-4-(4-hydroxy-1-piperidinyl)phenyl]-3-methyl-1,6-dihydro-7H-pyrazolo[4,3-d]pyrimidin-7-one]
15 | ≤ 1000 | CN1CCN(c2ccc(-c3nc4c(c(C5CCCCC5)nn4C)c(=O)[nH]3)cc2)CC1 [Example 179, 3-Cyclohexyl-1-methyl-6-[4-(4-methyl-1-piperazinyl)phenyl]-1,5-dihydro-4H-pyrazolo[3,4-d]pyrimidin-4-one monomethanesulfonate]
16 | ≤ 10 | CCOc1cc(NCCOC)ccc1-c1nc2c(C)nn(C3CCCCC3)c2c(=O)[nH]1 [Example 263, 1-Cyclohexyl-5-{2-ethoxy-4-[(2-methoxyethyl)amino]phenyl}-3-methyl-1,6-dihydro-7H-pyrazolo[4,3-d]pyrimidin-7-one]

More lines, now with the values behind:

Row | SMILES | IC50 [nM]
17 | COc1cc(C(=O)NCC(=O)O)ccc1-c1nc2c(c(C3CCCCC3)nn2C)c(=O)[nH]1 [Example 72, {[4-(3-Cyclohexyl-1-methyl-4-oxo-4,5-dihydro-1H-pyrazolo[3,4-d]pyrimidin-6-yl)-3-methoxybenzoyl]amino}acetic acid] | ≤ 1000
18 | CN1CCN(c2ccc(-c3nc4c(c(C5CCCCC5)nn4C)c(=O)[nH]3)c(OC(F)F)c2)CC1 [Example 139, 3-Cyclohexyl-6-[2-(difluoromethoxy)-4-(4-methyl-1-piperazinyl)phenyl]-1-methyl-1,5-dihydro-4H-pyrazolo[3,4-d]pyrimidin-4-one monomethanesulfonate] | ≤ 1000
19 | COc1cc(C2CCN(C)CC2)ccc1-c1nc2c(C)nn(C3CCCCC3)c2c(=O)[nH]1 [Example 124, 1-Cyclohexyl-5-[2-methoxy-4-(1-methyl-4-piperidinyl)phenyl]-3-methyl-1,6-dihydro-7H-pyrazolo[4,3-d]pyrimidin-7-one] | ≤ 1000
20 | Cc1nn(C2CCCCC2)c2c(=O)[nH]c(-c3ccc([N+](=O)[O-])cc3)nc12 [Example 2, 1-Cyclohexyl-3-methyl-5-(4-nitrophenyl)-1,6-dihydro-7H-pyrazolo[4,3-d]pyrimidin-7-one] | ≤ 1000
21 | CCNC1CCN(c2ccc(-c3nc4c(C)nn(C5CCCCC5)c4c(=O)[nH]3)c(OC)c2)CC1 [Example 99, 1-Cyclohexyl-5-{2-methoxy-4-[4-(ethylamino)-1-piperidinyl]phenyl}-3-methyl-1,6-dihydro-7H-pyrazolo[4,3-d]pyrimidin-7-one] | ≤ 1000
22 | COc1cc(N2CCC(CO)CC2)ccc1-c1nc2c(C)nn(C3CCCCC3)c2c(=O)[nH]1 [Example 109, 1-Cyclohexyl-5-{4-[4-(hydroxymethyl)-1-piperidinyl]-2-methoxyphenyl}-3-methyl-1,6-dihydro-7H-pyrazolo[4,3-d]pyrimidin-7-one] | ≤ 10
23 | Cc1nn(C2CCCCC2)c2c(=O)[nH]c(-c3ccc(N)cc3)nc12 [Example 3, 5-(4-Aminophenyl)-1-cyclohexyl-3-methyl-1,6-dihydro-7H-pyrazolo[4,3-d]pyrimidin-7-one] | ≤ 1000
24 | CNCCN(C)c1ccc(-c2nc3c(C)nn(C4CCCCC4)c3c(=O)[nH]2)c(OC)c1 [Example 103, 1-Cyclohexyl-5-(2-methoxy-4-{methyl[2-(methylamino)ethyl]amino}phenyl)-3-methyl-1,6-dihydro-7H-pyrazolo[4,3-d]pyrimidin-7-one monofumarate] | ≤ 10
25 | CNc1ccc(-c2nc3c(c(C4CCCCC4)nn3C)c(=O)[nH]2)c(OC)c1 [Example 47, 3-Cyclohexyl-6-[2-methoxy-4-(methylamino)phenyl]-1-methyl-1,5-dihydro-4H-pyrazolo[3,4-d]pyrimidin-4-one] | ≤ 10
26 | COc1cc(N2CCCN(C)CC2)ccc1-c1nc2c(c(C3CCCCC3)nn2C)c(=O)[nH]1 [Example 136, 3-Cyclohexyl-6-[2-methoxy-4-(4-methyl-1,4-diazepan-1-yl)phenyl]-1-methyl-1,5-dihydro-4H-pyrazolo[3,4-d]pyrimidin-4-one monomethanesulfonate] | ≤ 10
27 | COc1cc(N2CCN(C)CC2)ccc1-c1nc2c(c(C3CCCCC3)nn2C)c(=O)[nH]1 [Example 28, 3-Cyclohexyl-6-[2-methoxy-4-(4-methyl-1-piperazinyl)phenyl]-1-methyl-1,5-dihydro-4H-pyrazolo[3,4-d]pyrimidin-4-one monomethanesulfonate] | ≤ 10
28 | COc1cc(N2CCCN(C)CC2)ccc1-c1nc2c(C)nn(C3CCCCC3)c2c(=O)[nH]1 [Example 112, 1-Cyclohexyl-5-[2-methoxy-4-(4-methyl-1,4-diazepan-1-yl)phenyl]-3-methyl-1,6-dihydro-7H-pyrazolo[4,3-d]pyrimidin-7-one] | ≤ 1000
29 | Cc1nn(C2CCCCC2)c2c(=O)[nH]c(-c3cc(Cl)ccn3)nc12 [Example 17, 5-(4-Chloro-2-pyridinyl)-1-cyclohexyl-3-methyl-1,6-dihydro-7H-pyrazolo[4,3-d]pyrimidin-7-one] | ≤ 1000
30 | COc1cc(S(=O)(=O)N2CCOCC2)ccc1-c1nc2c(c(C3CCCCC3)nn2C)c(=O)[nH]1 [Example 51, 3-Cyclohexyl-6-[2-methoxy-4-(4-morpholinylsulfonyl)phenyl]-1-methyl-1,5-dihydro-4H-pyrazolo[3,4-d]pyrimidin-4-one] | ≤ 10
31 | COCCN(C)c1ccc(-c2nc3c(c(C4CCCCC4)nn3C)c(=O)[nH]2)c(OC)c1 [Example 73, 3-Cyclohexyl-6-{2-methoxy-4-[(2-methoxyethyl)(methyl)amino]phenyl}-1-methyl-1,5-dihydro-4H-pyrazolo[3,4-d]pyrimidin-4-one] | ≤ 10

Source: patent US7268128B2, “1,3,5-trisubstituted-5-phenyl and 5-pyridyl pyrazolopyrimidinone derivatives having PDE7 inhibiting action” (Ausbio Pharma Co., Ltd., priority 2001, dated 2007)
